Measurements from ChEMBL document CHEMBL4229521, “Identification of a novel series of potent and selective CCR6 inhibitors as biological probes” (Bioorg Med Chem Lett, 2018).

Legend:
[1] = Metabolic stability in human liver microsomes; format: ADME, microsome; settings: read-out: Stability
[2] = target: T1, C-C chemokine receptor type 6 (Homo sapiens, UniProt P51684); test: Inhibition of human CCR6 expressed in CHO cells assessed as decrease in CCL20-induced reduction of forskolin-stimulated cAMP accumulation preincubated for 30 mins followed agonist addition measured after 30 mins by HTRF assay; format: functional, cell-based
T1 sequence (P51684 whole entry): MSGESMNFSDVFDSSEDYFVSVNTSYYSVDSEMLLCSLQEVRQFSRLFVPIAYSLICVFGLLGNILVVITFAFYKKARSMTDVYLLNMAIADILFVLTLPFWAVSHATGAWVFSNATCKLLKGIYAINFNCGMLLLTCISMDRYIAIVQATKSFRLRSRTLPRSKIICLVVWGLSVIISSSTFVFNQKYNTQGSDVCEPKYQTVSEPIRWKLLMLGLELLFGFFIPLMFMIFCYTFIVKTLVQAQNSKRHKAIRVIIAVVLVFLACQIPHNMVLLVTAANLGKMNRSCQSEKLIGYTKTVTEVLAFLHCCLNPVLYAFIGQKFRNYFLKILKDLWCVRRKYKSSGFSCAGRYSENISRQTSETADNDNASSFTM

[3] = Cytotoxicity against human B cells assessed as ATP content at 30 uM by cell titer glo-based luminescence assay relative to control; settings: read-out: Activity
[4] = Solubility of the compound in buffer solution at pH 6.8; format: physicochemical
[5] = Solubility of the compound in water at pH 6.8; format: physicochemical
[6] = target: T2, C-C chemokine receptor type 7 (Homo sapiens, UniProt P32248); test: Inhibition of human CCR7 expressed in CHO cells assessed as decrease in CCL19-induced reduction of forskolin-stimulated cAMP accumulation preincubated for 30 mins followed agonist addition measured after 30 mins by HTRF assay; format: functional, cell-based
T2 sequence (P32248 whole entry): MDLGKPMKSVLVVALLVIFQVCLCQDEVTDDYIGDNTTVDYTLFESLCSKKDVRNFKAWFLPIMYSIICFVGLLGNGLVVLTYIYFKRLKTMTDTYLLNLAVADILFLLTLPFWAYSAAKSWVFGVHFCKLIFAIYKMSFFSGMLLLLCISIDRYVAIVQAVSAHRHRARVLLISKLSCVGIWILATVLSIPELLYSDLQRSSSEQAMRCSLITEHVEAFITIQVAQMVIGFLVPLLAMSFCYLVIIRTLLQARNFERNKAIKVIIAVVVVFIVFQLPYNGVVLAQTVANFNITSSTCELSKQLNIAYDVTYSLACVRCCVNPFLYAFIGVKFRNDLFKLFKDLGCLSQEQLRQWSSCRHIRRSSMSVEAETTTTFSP

[7] = target: T3, C-C chemokine receptor type 1 (Homo sapiens, UniProt P32246); test: Inhibition of human CCR1 expressed in CHO cells assessed as decrease in RANTES-induced reduction of forskolin-stimulated cAMP accumulation preincubated for 30 mins followed agonist addition measured after 30 mins by HTRF assay; format: functional, cell-based
T3 sequence (P32246 whole entry): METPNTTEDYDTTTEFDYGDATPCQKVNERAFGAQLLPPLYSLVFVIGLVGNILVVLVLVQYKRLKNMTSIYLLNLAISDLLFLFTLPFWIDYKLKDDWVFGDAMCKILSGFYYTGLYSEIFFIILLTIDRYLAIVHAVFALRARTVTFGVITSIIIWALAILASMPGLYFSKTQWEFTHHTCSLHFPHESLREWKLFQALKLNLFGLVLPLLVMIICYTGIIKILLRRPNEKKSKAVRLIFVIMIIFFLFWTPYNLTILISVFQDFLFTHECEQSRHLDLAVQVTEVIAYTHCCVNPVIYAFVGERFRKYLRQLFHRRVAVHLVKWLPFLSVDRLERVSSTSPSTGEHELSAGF

[8] = target: T4, C-C chemokine receptor type 6 (Macaca mulatta, UniProt H9YX08); test: Inhibition of monkey CCR6 expressed in CHO cells assessed as decrease in CCL20-induced reduction of forskolin-stimulated cAMP accumulation preincubated for 30 mins followed agonist addition measured after 30 mins by HTRF assay; format: cell-based
T4 sequence (H9YX08 whole entry): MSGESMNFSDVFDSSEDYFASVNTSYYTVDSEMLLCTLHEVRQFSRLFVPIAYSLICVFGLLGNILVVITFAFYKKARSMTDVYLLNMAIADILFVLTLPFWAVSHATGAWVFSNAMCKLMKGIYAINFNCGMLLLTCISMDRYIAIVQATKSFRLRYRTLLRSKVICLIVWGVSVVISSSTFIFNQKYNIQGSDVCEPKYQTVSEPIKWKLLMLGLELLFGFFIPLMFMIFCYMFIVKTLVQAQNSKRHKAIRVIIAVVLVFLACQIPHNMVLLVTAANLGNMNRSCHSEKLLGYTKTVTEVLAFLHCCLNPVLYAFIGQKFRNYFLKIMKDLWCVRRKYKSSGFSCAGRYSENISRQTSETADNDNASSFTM

[9] = target: T5, Voltage-gated inwardly rectifying potassium channel KCNH2 (Homo sapiens, UniProt Q12809); test: Inhibition of human ERG in absence of BSA
[10] = target: CYP2D6 (Homo sapiens, UniProt P10635); test: Inhibition of CYP2D6 (unknown origin) at 10 uM relative to control; format: ADME
[11] = target: T6, CYP2C8 (Homo sapiens, UniProt P10632); test: Inhibition of CYP2C8 (unknown origin) at 10 uM relative to control; format: ADME
T6 sequence (P10632 whole entry): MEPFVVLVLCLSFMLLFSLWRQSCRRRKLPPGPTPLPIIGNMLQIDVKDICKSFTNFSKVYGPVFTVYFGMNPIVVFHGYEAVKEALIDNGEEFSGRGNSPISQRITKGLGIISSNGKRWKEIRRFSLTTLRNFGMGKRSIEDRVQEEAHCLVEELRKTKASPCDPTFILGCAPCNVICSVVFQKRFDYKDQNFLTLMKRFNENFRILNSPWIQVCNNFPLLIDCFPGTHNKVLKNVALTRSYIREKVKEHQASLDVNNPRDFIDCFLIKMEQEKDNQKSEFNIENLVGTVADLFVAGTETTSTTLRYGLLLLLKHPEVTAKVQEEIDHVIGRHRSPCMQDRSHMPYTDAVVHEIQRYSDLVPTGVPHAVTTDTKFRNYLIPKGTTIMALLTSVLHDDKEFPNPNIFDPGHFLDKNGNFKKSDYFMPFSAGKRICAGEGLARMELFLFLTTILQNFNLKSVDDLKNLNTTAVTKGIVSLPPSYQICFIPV

[12] = Clearance in cynomolgus monkey at 0.1 mg/kg, iv or 1 mg/kg, po; format: ADME, organism-based, Macaca fascicularis; settings: in vivo
[13] = Volume of distribution at steady state in cynomolgus monkey at 0.1 mg/kg, iv or 1 mg/kg, po; format: ADME, organism-based, Macaca fascicularis; settings: in vivo, read-out: Vdss
[14] = target: CYP3A4 (Homo sapiens, UniProt P08684); test: Inhibition of CYP3A4 (unknown origin) at 10 uM relative to control; format: ADME
[15] = AUC (0 to 24 hrs) in cynomolgus monkey at 1 mg/kg, po; format: ADME, organism-based, Macaca fascicularis; parameters: dose 1 mg/kg, time < 24 hr, route oral; settings: in vivo
[16] = AUC (0 to 24 hrs) in cynomolgus monkey at 0.1 mg/kg, iv; format: ADME, organism-based, Macaca fascicularis; parameters: dose 0.1 mg/kg, time < 24 hr, route intravenous; settings: in vivo
[17] = target: T5, Voltage-gated inwardly rectifying potassium channel KCNH2; test: Inhibition of human ERG in presence of BSA
[18] = target: CYP2C9 (Homo sapiens, UniProt P11712); test: Inhibition of CYP2C9 (unknown origin) at 10 uM relative to control; format: ADME
[19] = Oral bioavailability in cynomolgus monkey at 1 mg/kg; format: ADME, organism-based, Macaca fascicularis; settings: in vivo
[20] = target: T7, CYP1A2 (Homo sapiens, UniProt P05177); test: Inhibition of CYP1A2 (unknown origin) at 10 uM relative to control; format: ADME
T7 sequence (P05177 whole entry): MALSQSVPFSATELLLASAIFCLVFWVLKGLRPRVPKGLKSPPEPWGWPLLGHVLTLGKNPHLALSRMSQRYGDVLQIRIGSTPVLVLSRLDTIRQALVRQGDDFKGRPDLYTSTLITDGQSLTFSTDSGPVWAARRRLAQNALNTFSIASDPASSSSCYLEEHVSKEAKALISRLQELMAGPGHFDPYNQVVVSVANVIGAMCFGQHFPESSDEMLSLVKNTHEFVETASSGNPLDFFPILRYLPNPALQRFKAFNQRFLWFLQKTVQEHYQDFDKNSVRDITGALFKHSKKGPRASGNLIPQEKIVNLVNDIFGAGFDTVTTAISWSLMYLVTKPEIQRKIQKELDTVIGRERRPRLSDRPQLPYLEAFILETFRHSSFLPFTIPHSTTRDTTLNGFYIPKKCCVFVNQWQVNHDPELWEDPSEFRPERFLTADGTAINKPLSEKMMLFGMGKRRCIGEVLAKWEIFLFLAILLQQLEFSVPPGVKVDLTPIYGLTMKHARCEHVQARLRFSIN

[21] = Fraction unbound in cynomolgus monkey plasma at 0.1 mg/kg, iv or 1 mg/kg, po; format: ADME, organism-based, Macaca fascicularis

T5 sequence (Q12809 whole entry): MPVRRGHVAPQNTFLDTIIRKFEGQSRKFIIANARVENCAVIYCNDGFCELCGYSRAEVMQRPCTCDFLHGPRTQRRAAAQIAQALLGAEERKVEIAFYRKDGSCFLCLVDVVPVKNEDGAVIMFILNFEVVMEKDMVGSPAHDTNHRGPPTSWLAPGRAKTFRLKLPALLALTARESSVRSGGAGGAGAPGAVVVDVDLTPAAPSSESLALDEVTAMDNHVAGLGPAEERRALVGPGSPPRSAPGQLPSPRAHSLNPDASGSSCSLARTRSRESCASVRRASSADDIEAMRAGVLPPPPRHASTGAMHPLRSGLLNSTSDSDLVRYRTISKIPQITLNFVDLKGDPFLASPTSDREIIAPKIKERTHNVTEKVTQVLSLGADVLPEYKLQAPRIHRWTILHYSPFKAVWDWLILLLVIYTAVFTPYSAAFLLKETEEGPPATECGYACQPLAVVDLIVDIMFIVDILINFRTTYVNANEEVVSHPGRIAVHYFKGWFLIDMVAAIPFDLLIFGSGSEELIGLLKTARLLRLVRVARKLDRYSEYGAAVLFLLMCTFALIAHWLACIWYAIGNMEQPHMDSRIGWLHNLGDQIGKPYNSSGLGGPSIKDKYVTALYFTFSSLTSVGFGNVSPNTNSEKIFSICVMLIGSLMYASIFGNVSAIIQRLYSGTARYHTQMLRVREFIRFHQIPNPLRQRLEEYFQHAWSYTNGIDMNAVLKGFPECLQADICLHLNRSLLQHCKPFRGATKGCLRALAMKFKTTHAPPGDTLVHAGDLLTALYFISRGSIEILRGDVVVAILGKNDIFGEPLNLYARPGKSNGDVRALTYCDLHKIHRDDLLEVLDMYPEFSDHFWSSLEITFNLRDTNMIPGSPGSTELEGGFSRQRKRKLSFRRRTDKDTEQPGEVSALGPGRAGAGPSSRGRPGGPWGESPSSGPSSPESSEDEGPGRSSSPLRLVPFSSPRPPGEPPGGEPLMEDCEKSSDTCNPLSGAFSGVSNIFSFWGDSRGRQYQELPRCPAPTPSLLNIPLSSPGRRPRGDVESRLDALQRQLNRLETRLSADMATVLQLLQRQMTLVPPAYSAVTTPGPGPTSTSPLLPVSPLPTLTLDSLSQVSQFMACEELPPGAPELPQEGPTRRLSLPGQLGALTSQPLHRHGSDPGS
CYP3A4, sequence (P08684 whole entry): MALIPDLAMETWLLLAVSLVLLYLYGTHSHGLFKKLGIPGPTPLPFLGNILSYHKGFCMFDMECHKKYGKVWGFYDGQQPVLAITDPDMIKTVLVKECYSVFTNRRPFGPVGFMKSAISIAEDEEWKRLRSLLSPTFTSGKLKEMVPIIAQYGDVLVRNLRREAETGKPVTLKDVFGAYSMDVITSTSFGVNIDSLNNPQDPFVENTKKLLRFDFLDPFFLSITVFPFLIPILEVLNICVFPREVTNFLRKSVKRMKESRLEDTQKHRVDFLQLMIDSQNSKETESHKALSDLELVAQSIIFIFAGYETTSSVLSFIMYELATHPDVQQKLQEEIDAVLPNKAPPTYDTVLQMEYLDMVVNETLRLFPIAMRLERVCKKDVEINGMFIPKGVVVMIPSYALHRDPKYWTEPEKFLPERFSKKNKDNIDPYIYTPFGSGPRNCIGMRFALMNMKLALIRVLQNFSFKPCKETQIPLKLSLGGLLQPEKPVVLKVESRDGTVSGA
CYP2C9, sequence (P11712 whole entry): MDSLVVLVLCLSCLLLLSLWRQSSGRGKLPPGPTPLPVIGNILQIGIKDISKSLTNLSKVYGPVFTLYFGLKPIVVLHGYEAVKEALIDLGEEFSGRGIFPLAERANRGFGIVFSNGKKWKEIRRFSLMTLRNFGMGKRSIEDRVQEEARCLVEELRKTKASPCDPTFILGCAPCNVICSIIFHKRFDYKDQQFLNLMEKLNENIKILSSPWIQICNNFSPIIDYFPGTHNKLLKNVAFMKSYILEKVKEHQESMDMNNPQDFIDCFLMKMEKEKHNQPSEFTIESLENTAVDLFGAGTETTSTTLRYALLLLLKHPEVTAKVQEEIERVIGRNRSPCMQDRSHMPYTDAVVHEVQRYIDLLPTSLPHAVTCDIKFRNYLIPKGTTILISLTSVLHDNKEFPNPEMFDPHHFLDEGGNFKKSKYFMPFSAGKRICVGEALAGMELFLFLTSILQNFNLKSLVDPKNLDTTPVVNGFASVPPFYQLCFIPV
CYP2D6, sequence (P10635 whole entry): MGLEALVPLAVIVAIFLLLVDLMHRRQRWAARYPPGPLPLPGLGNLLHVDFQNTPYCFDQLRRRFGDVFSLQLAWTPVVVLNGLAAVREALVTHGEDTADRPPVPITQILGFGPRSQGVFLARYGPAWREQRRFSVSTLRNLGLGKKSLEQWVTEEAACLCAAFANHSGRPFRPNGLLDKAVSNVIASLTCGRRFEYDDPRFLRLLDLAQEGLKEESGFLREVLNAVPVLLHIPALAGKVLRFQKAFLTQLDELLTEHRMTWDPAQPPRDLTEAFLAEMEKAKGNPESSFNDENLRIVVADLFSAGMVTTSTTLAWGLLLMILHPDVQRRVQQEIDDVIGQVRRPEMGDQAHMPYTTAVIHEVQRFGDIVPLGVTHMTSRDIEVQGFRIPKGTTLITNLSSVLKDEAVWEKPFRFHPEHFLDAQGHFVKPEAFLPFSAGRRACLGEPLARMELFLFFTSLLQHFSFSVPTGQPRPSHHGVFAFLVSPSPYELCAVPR

| Structure (SMILES) | IC50 [2] | IC50 [6] | IC50 [7] | other results |
| --- | --- | --- | --- | --- |
| COc1ccc(S(=O)(=O)N2CCC(Nc3ccc(C#N)cc3)CC2)cc1 | 1.9 µM |  |  | microsomal CLint [1]: 69 µL/min/mg; viability at 30 µM [3]: 44.9% |
| COc1ccc(S(=O)(=O)N2CCC(Nc3ccc(C#N)cn3)CC2)cc1 | 2.5 µM |  |  | microsomal CLint [1]: 19 µL/min/mg; viability at 30 µM [3]: 72.7% |
| CC(C)(C)c1ccc(S(=O)(=O)N2CCC(Nc3ccc(C#N)cn3)CC2)cc1 |  |  |  | solubility [4]: < 0.1 µg/mL; solubility [5]: < 0.1 µg/mL |
| N#Cc1ccc(-c2ccc(S(=O)(=O)[C@H]3CC[C@H](Nc4ccc(C(F)(F)F)cn4)CC3)cc2)cc1 |  | > 30 µM | > 30 µM |  |
| Cc1cccc(S(=O)(=O)N2CCC(Nc3ccc(C#N)cn3)CC2)c1 | > 30 µM |  |  |  |
| N#Cc1ccc(NC2CCN(S(=O)(=O)c3ccc(-c4ccccc4)cc3)CC2)nc1 | 0.29 µM | > 30 µM | > 30 µM | IC50 [8]: 0.28 µM |
| NC(=O)c1ccc(-c2ccc(S(=O)(=O)[C@H]3CC[C@H](Nc4ccc(C(F)(F)F)cn4)CC3)cc2)cn1 |  | 18 µM | > 30 µM |  |
| Cc1ccc(S(=O)(=O)N2CCC(Nc3ccc(C#N)cn3)CC2)cc1 | 3.1 µM | > 30 µM | > 30 µM | IC50 [8]: 1.3 µM |
| COc1ccc(S(=O)(=O)N2CCC(Nc3cccc(C#N)n3)CC2)cc1 | 7.4 µM |  |  |  |
| CC(=O)Nc1ccc(S(=O)(=O)N2CCC(Nc3ccc(C#N)cn3)CC2)cc1 | > 30 µM |  |  |  |
| NC(=O)c1cc(-c2ccc(S(=O)(=O)[C@H]3CC[C@H](Nc4ccc(C(F)(F)F)cn4)CC3)cc2)ccn1 |  | 9.4 µM | > 30 µM | inhibition (INH) [9]: < 50%; inhibition at 10 µM [10]: < 50%; inhibition at 10 µM [11]: < 50%; clearance [12]: 1.1 mL/min/kg; Vd [13]: 0.704 L/kg; inhibition at 10 µM [14]: < 50%; AUC(0-t) at 24 h [15]: 10000 ng·h/mL; AUC(0-t) at 24 h [16]: 1550 ng·h/mL; inhibition (INH) [17]: < 50%; inhibition at 10 µM [18]: 51%; bioavailability [19]: 65%; inhibition at 10 µM [20]: < 50%; fraction unbound [21]: 0.01 |
| COc1ccc(NC2CCN(S(=O)(=O)c3ccc(OC)cc3)CC2)cc1 | > 30 µM |  |  |  |
| NC(=O)c1ccc(-c2ccc(S(=O)(=O)[C@H]3CC[C@H](Nc4ccc(C(F)(F)F)cn4)CC3)cc2)cc1 |  | > 30 µM | > 30 µM |  |
| COc1ccc(S(=O)(=O)N2CCC(Nc3cc(C#N)ccn3)CC2)cc1 | > 30 µM |  |  |  |
| N#Cc1ccc(NC2CCN(S(=O)(=O)c3cccc(-c4ccccc4)c3)CC2)nc1 | > 30 µM |  |  |  |
| COc1ccc(S(=O)(=O)N2CCC(Nc3ccc(C#N)cn3)C2)cc1 (stereo not given) | > 30 µM |  |  |  |
| N#Cc1ccc(NC2CCN(S(=O)(=O)c3ccc(Cl)cc3)CC2)nc1 | 1.5 µM |  |  |  |
